Test results taken from patent US20240033244A1, “COMPOSITIONS AND METHODS FOR INHIBITING YTHDF1” (SHANGHAI INSTITUTE OF MATERIA MEDICA, CHINESE ACADEMY OF …, priority 2020, published 2024).

Columns and labels:
[1] = target: T1, YTHDF1 mutant H528A (Homo sapiens, UniProt Q9BYJ9, H528A); assay: FP assay with YTHDF1 mutant H528A; format: binding
T1 construct: GST (N, cleaved yes); made in house; host or cells: E. coli BL21 (DE3)
Protocol: The protein YTHDF1 (361-559) (SEQ ID NO: 2) and its mutants (SEQ ID NOs: 4-13) were cloned into pGEx-6P-1 vector (obtained from YouBio Co, Ltd, Catalog NO: VT1258), and the His-YTHDF1 (361-559) (SEQ ID NO: 3) used in AlphaScreen Assay was cloned into modified pET28a vector (obtained from YouBio Co, Ltd, Catalog NO: VT1207). The vectors were transformed into E. coli BL21 (DE3) cells and cultured at 37° C. When OD value reached 0.6˜0.8, 1 mM Isopropyl-β-D-thiogalactopyranoside was added to overexpress the protein at 16° C. overnight. […] Then, the proteins were further purified via cation exchange (HiTrap SP, GE Healthcare) and finally through a Superdex 75 10/300 column (GE Healthcare). At last, the purified YTHDF1(361-559) and the mutants were kept in buffer which contains 20 mM Hepes (pH 7.4) and 200 mM NaCl. For His-YTHDF1 (361-559), the protein was purified via Ni-NTA chromatography (HisTrap FF, GE Healthcare), followed by cation exchange and Superdex 75 10/300 column in sequence. And the obtained protein was kept in the buffer with the same ingredients.
All of the YTHDF1 (361-559), the 5′-FAM labeled m^6A-containing mRNA (5′-FAM-[…] (m^6A) CUGUG-3′, SEQ ID NO: 14) and the candidate compounds were diluted with assay buffer (20 mM Hepes (pH 7.4), 50 mM NaCl, 0.01% (v/v) tween 20, 5% (v/v) glycerol). […] At last, the mixtures were measured by Envision Readers (PerkinElmer). […]

[2] = target: T2, YTHDF1 (361-559) (Homo sapiens, UniProt Q9BYJ9); assay: Fluorescence polarization (FP) assay, inhibition of m6A-containing mRNA binding to YTHDF1; conditions: read-out: IC50, inhibition of interaction between m6A-containing mRNA and YTHDF1
T2 construct: GST (N, cleaved yes); made in house; host or cells: E. coli BL21 (DE3)
T2 sequence (Q9BYJ9 with tags, fused parts or gaps): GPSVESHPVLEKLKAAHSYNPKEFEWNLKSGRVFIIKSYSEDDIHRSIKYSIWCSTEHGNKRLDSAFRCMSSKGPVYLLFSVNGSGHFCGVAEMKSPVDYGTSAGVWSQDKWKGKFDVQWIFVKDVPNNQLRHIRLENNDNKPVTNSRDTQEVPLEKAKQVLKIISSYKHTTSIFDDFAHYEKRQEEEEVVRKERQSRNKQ
Protocol: As for activity tests, 1.25 μM YTHDF1 (361-559) was incubated with candidate compounds diluted to concentrations as indicated for 30 minutes. The subsequent steps were similar to that of HTS. And an equal amount of DMSO was used as the negative control.

[3] = target: T2, YTHDF1 (361-559); assay: Isothermal Titration Calorimetry (ITC); format: binding; conditions: 25° C.
Protocol: Purified YTHDF1 (361-559) was dialyzed at 4° C. overnight in dialysis buffer (20 mM Hepes (pH 7.4) and 200 mM NaCl). Then dialyzed protein was diluted to 50 μM with dialysis buffer. […] Isothermal titration calorimetry (ITC) was conducted on a Microcal ITC 200 isothermal titration calorimeter (GE Healthcare) at 25° C. 200 μL 50 μM YTHDF1 (361-559) was filled in the sample cell and constantly stirred at 750 rpm; 40 μL 1 mM SAA was filled in the syringe. […] Then in order to make the titration effect more obvious, the nineteen […] injections were changed after calculation into five 2.5 μL injections followed by fourteen 1.9 μL injections. […] The experimental data was analyzed via Microcal ORIGIN (v7.0) software (Microcal Software).
Then, the binding affinity between SAA and YTHDF1 was evaluated. The Isothermal Titration Calorimetry (ITC) assay was performed to accurately test the equilibrium dissociation constants (Kd) between YTHDF1 and SAA. The ITC assay was conducted on a Microcal iTC200 isothermal titration calorimeter (GE Healthcare) for three times independently. Briefly, freshly purified YTHDF1 (50 μM) was titrated with 1 mM SAA at 25° C. in a buffer comprising 20 mM Hepes (pH 7.4) and 200 mM NaCl.

[4] = target: T3, His-YTHDF1 (361-559) (Homo sapiens, UniProt Q9BYJ9); assay: AlphaScreen competition assay against non-biotinylated m6A-containing mRNA; format: binding
T3 construct: made in house; host or cells: E. coli BL21 (DE3)
T3 sequence (Q9BYJ9 with tags, fused parts or gaps): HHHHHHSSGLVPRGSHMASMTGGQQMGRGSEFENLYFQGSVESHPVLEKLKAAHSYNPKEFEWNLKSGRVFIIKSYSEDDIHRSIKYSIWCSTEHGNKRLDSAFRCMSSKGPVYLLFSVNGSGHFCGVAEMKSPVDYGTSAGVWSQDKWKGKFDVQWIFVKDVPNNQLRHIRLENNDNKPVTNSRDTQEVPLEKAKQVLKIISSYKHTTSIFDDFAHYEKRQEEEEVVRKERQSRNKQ
Protocol: 200 nM His-YTHDF1 (361-559) was incubated with non-biotinylated m^6A-containing mRNA at 4° C. for 10 minutes. […] Next, 20 nM biotinylated m^6A-containing mRNA and two kinds of beads were added in subdued light and incubated at 4° C. for 1 hour before detection.
A competitive binding experiment was performed against fixed concentrations of non-biotinylated m^6A-containing mRNA, based on AlphaScreen assay, using 200 nM YTHDF1 and 20 nM biotinylated m^6A-containing mRNA.

T1 sequence (Q9BYJ9 with tags, fused parts or gaps H528A): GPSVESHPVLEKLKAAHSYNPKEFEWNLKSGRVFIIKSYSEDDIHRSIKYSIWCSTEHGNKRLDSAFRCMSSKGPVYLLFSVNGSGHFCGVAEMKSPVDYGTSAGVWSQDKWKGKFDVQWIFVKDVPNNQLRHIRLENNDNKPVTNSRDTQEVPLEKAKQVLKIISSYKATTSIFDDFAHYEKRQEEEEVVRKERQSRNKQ

IC50 [2]: 2.3 ± 0.11 µM
entropy change ΔS [3]: 13.6 cal/mol/deg
Kd ([3]; 50 μM YTHDF1 titrated with 1 mM SAA): 5.71 µM
inhibitory activity against YTHDF1 with competitor ([4]; 50 nM, 100 nM, 200 nM or 400 nM non-biotinylated m6A-containing mRNA preincubated with YTHDF1): remained unchanged
IC50 ([4]; absence of non-biotinylated m6A-containing mRNA, 200 nM YTHDF1, 20 nM biotinylated mRNA, read-out: inhibitory activity against YTHDF1): 0.8 ± 0.08 µM
SMILES: O=C(/C=C/c1ccc(O)c(O)c1/C=C/c1ccc(O)c(O)c1)O[C@H](Cc1ccc(O)c(O)c1)C(=O)O [SAA, Salvianolic Acid A]
inhibitory activity against mutant binding to m6A versus wildtype [1]: significantly weaker than that against wildtype YTHDF1
